In US12178940B2, “Controlled hydrogel delivery of focal adhesion kinase inhibitor for decreased scar formation” (THE BOARD OF TRUSTEES OF THE LELAND STANFORD JUNIOR …, priority 2018, dated 2024):
Counter-ions that a name gives are not always drawn. Like-named read-outs stand apart in the source and are kept apart here.

Key:
[1] = molecular target: FAK (Homo sapiens, UniProt Q05397); details: class symbols of Table 1, legend not given; cited from earlier work
[2] = test system: advanced solid tumors; details: cited from earlier work
[3] = test system: Other Targets; details: Table 1; cited from earlier work
[4] = test system: murine dorsal incisions; assay type: in vivo; details: daily local subcutaneous injection
Experimental: Hypertrophic scar model and local subcutaneous injection of FAKI: Incisional wounding and development of hypertrophic scars on the dorsum of mice were performed by previously described methods (Aarabi et al., 2007; Wong et al., 2011a). Animals were randomly assigned to receive 15, 75, or 150 μM concentrations of FAKI dissolved in 10% DMSO via daily local subcutaneous injection adjacent to the wound site. […] Specimens were harvested at Day 14 post-injury for histology and scar areas were quantified (FIG. 6).

[5] = test system: incisional HTS model; details: intradermal injection; cited from earlier work

Sequence of FAK (Q05397 whole entry, species assumed): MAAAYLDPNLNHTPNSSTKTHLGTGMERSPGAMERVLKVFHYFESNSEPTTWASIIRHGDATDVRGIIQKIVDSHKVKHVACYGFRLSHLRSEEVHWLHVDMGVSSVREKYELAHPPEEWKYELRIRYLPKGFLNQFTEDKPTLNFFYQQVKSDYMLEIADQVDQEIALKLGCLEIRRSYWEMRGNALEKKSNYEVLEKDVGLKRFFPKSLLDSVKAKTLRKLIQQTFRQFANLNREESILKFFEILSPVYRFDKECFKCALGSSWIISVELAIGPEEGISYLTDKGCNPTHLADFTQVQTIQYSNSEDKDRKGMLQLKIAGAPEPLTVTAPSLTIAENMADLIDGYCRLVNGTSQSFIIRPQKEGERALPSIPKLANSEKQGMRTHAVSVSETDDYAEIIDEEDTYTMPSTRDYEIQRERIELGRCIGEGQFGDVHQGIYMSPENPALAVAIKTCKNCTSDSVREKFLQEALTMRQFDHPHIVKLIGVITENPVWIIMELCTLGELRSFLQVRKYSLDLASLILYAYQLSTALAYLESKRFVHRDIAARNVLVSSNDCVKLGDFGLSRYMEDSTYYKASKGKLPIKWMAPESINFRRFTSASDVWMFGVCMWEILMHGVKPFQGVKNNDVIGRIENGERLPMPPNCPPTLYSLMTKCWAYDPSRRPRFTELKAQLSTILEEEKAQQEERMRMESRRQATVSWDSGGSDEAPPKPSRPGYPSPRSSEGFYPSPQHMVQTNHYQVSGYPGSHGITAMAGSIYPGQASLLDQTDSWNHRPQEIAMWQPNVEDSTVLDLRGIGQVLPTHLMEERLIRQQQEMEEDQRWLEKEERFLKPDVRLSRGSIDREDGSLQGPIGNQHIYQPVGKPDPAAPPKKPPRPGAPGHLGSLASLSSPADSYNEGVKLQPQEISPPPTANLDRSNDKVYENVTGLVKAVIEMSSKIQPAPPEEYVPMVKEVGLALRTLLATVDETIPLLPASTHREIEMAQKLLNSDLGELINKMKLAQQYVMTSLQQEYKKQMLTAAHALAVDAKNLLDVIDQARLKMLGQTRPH

Structure (SMILES): CNC(=O)c1ccc(Nc2ncc(C(F)(F)F)c(NCc3nccnc3N(C)S(C)(=O)=O)n2)cc1 [Defactinib]
- FAK [1]: ✓
- efficacy in treatment of advanced solid tumors ([2]; clinical trials): proven effective

Structure (SMILES): CN(c1ncccc1CNc1nc(Nc2ccc3c(c2)CC(=O)N3)ncc1C(F)(F)F)S(C)(=O)=O [PF-562271 HCl]
- Other Targets [3]: CDK2/ CyclinE,CDK3/ CyclinE,CKD1/ CyclinB

Structure (SMILES): CN(c1ncccc1CNc1nc(Nc2ccc3c(c2)CC(=O)N3)ncc1C(F)(F)F)S(C)(=O)=O [PF-562271]
- scar lesions (Masson's Trichrome) ([4]; 15 μM FAKI in 10% DMSO): reduced scar lesions
- scar lesions (Masson's Trichrome) ([4]; 75 μM FAKI in 10% DMSO): reduced scar lesions
- efficacy in treatment of advanced solid tumors ([2]; clinical trials): proven effective
- pharmacokinetics in clinical trials ([2]; clinical trials): desired pharmacokinetics
- reason for discontinuation as an anti-cancer agent ([2]; dosed orally): potential drug-drug interactions
- major systemic toxicities ([2]; oral administration, clinical trials): nausea/vomiting and gastrointestinal-related adverse effects

Structure (SMILES): CS(=O)(=O)c1cccc(CNc2nc(Nc3ccc4c(c3)CCC(=O)N4)ncc2C(F)(F)F)c1 [PF-573228]
- inflammatory chemokine pathways [5]: suppressed inflammatory chemokine pathways
- scarring in vivo [5]: attenuated scarring

Structure (SMILES): CC(=O)NCC(=O)N1[C@@H]2CC[C@H]1c1ccc(Nc3ncc(C(F)(F)F)c(NC4CCC4)n3)cc12 [PF-03814735]
- Other Targets [3]: Aurora A, Aurora B, FLT1

Structure (SMILES): CC(C)=CCC/C(C)=C/CC/C(C)=C/CC/C(C)=C/CC/C(C)=C/CC/C(C)=C/CC/C(C)=C/CC/C(C)=C/CC/C(C)=C/CO [Solanesol]
- FAK [1]: ✓

Structure (SMILES): CNC(=O)c1ccccc1Nc1nc(Nc2ccc(N3CCOCC3)cc2OC)ncc1Cl [TAE226]
- Other Targets [3]: Insulin Receptor, IGF-1R, c-Met
